Laboratory results taken from US20240409557A1, “5,6-FUSED AND 6,6-FUSED BICYCLIC ALCOHOLS AND ETHERS AND COMPOSITIONS FOR USE AS 15-PROSTAGLANDIN DEHYDROGENASE MODULATORS” (AMGEN INC., priority 2023, published 2024).

How the values were obtained:
[1] = molecular target: T1, human recombinant 15-PGDH (Homo sapiens, UniProt P15428); assay: Recombinant 15-PGDH enzymatic inhibition assay (PGDH-Lumi, NADH signal); format: biochemical; settings: recombinant 15-PGDH; 15 min pre-incubation, 60 min reaction with PGE2 and NAD+, NADH signal
T1 sequence (P15428 1-266): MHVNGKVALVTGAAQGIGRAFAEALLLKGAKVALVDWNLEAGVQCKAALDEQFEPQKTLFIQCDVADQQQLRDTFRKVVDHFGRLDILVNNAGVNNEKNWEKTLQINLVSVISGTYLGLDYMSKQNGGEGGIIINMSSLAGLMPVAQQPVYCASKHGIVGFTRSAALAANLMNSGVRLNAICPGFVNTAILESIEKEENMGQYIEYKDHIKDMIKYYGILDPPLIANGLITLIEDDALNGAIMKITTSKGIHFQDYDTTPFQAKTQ
How it was run: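 Recombinant 15-PGDH pre-incubated 15 min at room temperature with compound (22 concentrations, 2-fold dilutions) in 50 mM Tris pH 7.5, 0.01% Tween-20, […].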

15-PGDH in A549 cells = molecular target: T2, 15-PGDH in A549 cells (Homo sapiens, UniProt P15428); assay: A549 cellular 15-PGDH assay (PGE2 accumulation, HTRF); format: cell-based; settings: interleukin-stimulated, inhibitor 24 hrs, PGE2 by competitive HTRF, read-out: A549 Cell Assay IC50
T2 construct: endogenous in cells; host or cells: A549
T2 sequence (P15428 1-266): T1 sequence (P15428 1-266)
How it was run: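 IL-13-stimulated A549 lung carcinoma cells released PGE2, which was measured in supernatants by competitive HTRF with a Eu-cryptate anti-PGE2 antibody and labelled PGE2. Signal falls as PGE2 rises. IC50 values were derived from the binding data.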

IC50 [1] [nM] | IC50 (15-PGDH in A549 cells) [nM] | SMILES
0.393 | 0.919 | Cn1cc2cc(-c3cc(C4CC4)c4cc(C(O)C5CCC5)sc4n3)cnc2n1 (single isomer, unassigned) [Compound B8, cyclobutyl(4-cyclopropyl-6-(2-methyl-2H-pyrazolo[3,4-b]pyridin-5-yl)thieno[2,3-b]pyridin-2-yl)methanol]
154 | 11.4 | Cn1cc2cc(-c3cnc4sc([C@@H](O)C5CC(F)(F)C5)cc4c3)cnc2n1 (single isomer, unassigned) [Compound B77S]
7.69 | 9.15 | Cc1c(C2(O)CC(F)(F)C2)sc2nc(-c3cnc4nn(C)cc4c3)ccc12 [Compound C77, 3,3-difluoro-1-(3-methyl-6-(2-methyl-2H-pyrazolo[3,4-b]pyridin-5-yl)thieno[2,3-b]pyridin-2-yl)cyclobutanol]
11500 | > 750 | Cn1nnc2cc(-c3ccc4ccc([C@@H](O)C5CCOCC5)cc4n3)cnc21 (single isomer, unassigned) [Compound D3S]
0.273 | 0.0601 | Cn1cc2cc(-c3ccc4cc(C5(O)CC(C)(C)C5)sc4n3)cnc2n1 [Compound C26, 3,3-dimethyl-1-(6-(2-methyl-2H-pyrazolo[3,4-b]pyridin-5-yl)thieno[2,3-b]pyridin-2-yl)cyclobutanol]
0.496 | 0.847 | Cn1nnc2cc(-c3ccc4cc([C@]5(O)C[C@@H](OC(F)(F)F)C5)sc4n3)cnc21 [Compound C101C, cis-1-(6-(3-methyl-3H-[1,2,3]triazolo[4,5-b]pyridin-6-yl)thieno[2,3-b]pyridin-2-yl)-3-(trifluoromethoxy)cyclobutanol]
0.423 | 2.37 | Cn1nc2cc(-c3ccc4cc([C@H](O)C5CCOCC5)sc4n3)cnc2n1 (single isomer, unassigned) [Compound B39R]
7.12 | 31.9 | CC(O)c1cc2c(C3CC3)cc(-c3cnc4nn(C)cc4c3)nc2s1 (stereo not drawn) [Compound B11, 1-(4-cyclopropyl-6-(2-methyl-2H-pyrazolo[3,4-b]pyridin-5-yl)thieno[2,3-b]pyridin-2-yl)ethanol]
0.64 | 2.64 | Cn1cc2cc(-c3ccc4cc([C@@H](O)[C@H]5CCC5(F)F)sc4n3)cnc2n1 (single isomer, unassigned) [Compound B94SR]
0.832 | 1.03 | Cn1nnc2cc(-c3ccc4cc([C@]5(O)C[C@@H](C(F)F)C5)sc4n3)cnc21 [Compound C76C, cis-3-(difluoromethyl)-1-(6-(3-methyl-3H-[1,2,3]triazolo[4,5-b]pyridin-6-yl)thieno[2,3-b]pyridin-2-yl)cyclobutanol]
2280 | 316 | CO[C@H]1CC[C@@]1(O)c1cc2ccc(-c3cnc4nn(C)cc4c3)nc2s1 (single isomer, unassigned) [Compound C70SS]
2.85 | 12.8 | Cn1cc2cc(-c3ccc4cc(C5(O)CCC(F)(F)CC5)sc4n3)cnc2n1 [Compound C15, 4,4-difluoro-1-(6-(2-methyl-2H-pyrazolo[3,4-b]pyridin-5-yl)thieno[2,3-b]pyridin-2-yl)cyclohexanol]
32.6 | 3.45 | Cn1cc2cc(-c3ccc4cc([C@@]5(O)CCC5(C)C)sc4n3)cnc2n1 (single isomer, unassigned) [Compound C65R]
174 | 245 | Cc1c([C@@H](CO)C2CC(F)(F)C2)sc2nc(-c3cnc4nn(C)cc4c3)ccc12 (single isomer, unassigned) [Compound B93R]
11.6 | 29 | O[C@]1(c2cc3cnc(-c4ccnnc4)nc3s2)C[C@H](C(F)(F)F)C1 [Compound C126C, cis-1-(2-(4-pyridazinyl)thieno[2,3-d]pyrimidin-6-yl)-3-(trifluoromethyl)cyclobutanol]
0.47 | 0.0223 | CO[C@]1(C(F)(F)F)C[C@](O)(c2cc3ccc(-c4cnc5nn(C)cc5c4)nc3s2)C1 (single isomer, unassigned) [Compound C66T, trans-3-methoxy-1-(6-(2-methyl-2H-pyrazolo[3,4-b]pyridin-5-yl)thieno[2,3-b]pyridin-2-yl)-3-(trifluoromethyl)cyclobutanol]
0.513 | 1.29 | CCC(O)c1cc2ccc(-c3cnc4nn(C)cc4c3)nc2s1 (stereo not drawn) [Compound B22, 1-(6-(2-methyl-2H-pyrazolo[3,4-b]pyridin-5-yl)thieno[2,3-b]pyridin-2-yl)-1-propanol]
6.52 | 13.4 | CO[C@]1(C)C[C@](O)(c2cc3cnc(-c4cnc5c(c4)nnn5C)nc3s2)C1 (single isomer, unassigned) [Compound C121T, trans-3-methoxy-3-methyl-1-(2-(3-methyl-3H-[1,2,3]triazolo[4,5-b]pyridin-6-yl)thieno[2,3-d]pyrimidin-6-yl)cyclobutanol]
1030 | 354 | Cn1cc2cc(-c3ccc4cc([C@]5(O)C[C@@H](C(F)F)C5)ccc4n3)cnc2n1 [Compound D6C, cis-3-(difluoromethyl)-1-(2-(2-methyl-2H-pyrazolo[3,4-b]pyridin-5-yl)-6-quinolinyl)cyclobutanol]
0.291 | 0.69 | O[C@@H](c1cc2ccc(-c3ccc4nccnc4c3)nc2s1)C1CC(F)(F)C1 (single isomer, unassigned) [Compound B52R]
1.15 | 3.22 | CC(C)n1cc2cc(-c3ccc4cc(C(O)C5CC(F)(F)C5)sc4n3)ccc2n1 (stereo not drawn) [Compound B56, (3,3-difluorocyclobutyl)(6-(2-(2-propanyl)-2H-indazol-5-yl)thieno[2,3-b]pyridin-2-yl)methanol]
1.23 | 3.63 | Cn1cc2cc(-c3ccc4cc([C@@H](O)[C@@H]5CCC5(F)F)sc4n3)cnc2n1 (single isomer, unassigned) [Compound B94SS]
0.294 | 0.788 | Cn1cc2cc(-c3ccc4nc([C@]5(O)C[C@@H](OC(F)(F)F)C5)sc4n3)cnc2n1 [Compound C105C, cis-1-(5-(2-methyl-2H-pyrazolo[3,4-b]pyridin-5-yl)[1,3]thiazolo[5,4-b]pyridin-2-yl)-3-(trifluoromethoxy)cyclobutanol]
5.33 | 12.3 | Cc1c2ccc(-c3cnc4nn(C)cc4c3)nc2sc1[C@]1(O)C[C@@H](C(F)F)C1 [Compound C83C, cis-3-(difluoromethyl)-1-(3-methyl-6-(2-methyl-2H-pyrazolo[3,4-b]pyridin-5-yl)thieno[2,3-b]pyridin-2-yl)cyclobutanol]
0.382 | 0.0918 | Cn1cc2cc(-c3ccc4cc(C(O)C5CCC5)sc4n3)cnc2n1 (stereo not drawn) [Compound B18, cyclobutyl(6-(2-methyl-2H-pyrazolo[3,4-b]pyridin-5-yl)thieno[2,3-b]pyridin-2-yl)methanol]
0.534 | 0.0187 | Cn1cc2cc(-c3ccc4cc([C@]5(O)C[C@@H](OC(F)(F)F)C5)sc4n3)cnc2n1 [Compound C67C, cis-1-(6-(2-methyl-2H-pyrazolo[3,4-b]pyridin-5-yl)thieno[2,3-b]pyridin-2-yl)-3-(trifluoromethoxy)cyclobutanol]
1.21 | 1.64 | Cn1cc2cc(-c3ccc4c(N)c([C@H](O)C5CC(F)(F)C5)sc4n3)cnc2n1 (single isomer, unassigned) [Compound B95R]
